Assay results: patent US20250152718A1, “NUCLEIC ACID DELIVERY MATERIAL” (National University Corporation Tokai National Higher …, priority 2022, published 2025)

Tested on: HEK293T cells
Assay: Nucleic acid delivery test (plasmid DNA with GFP gene, quantitative PCR)
Format: cell-based
Details: buffered saline HBS, plasmid DNA 4.7 kb with GFP gene, after 48 hours
Protocol: Dimethylformamide solutions (10 mmol/L, 1 μL) of the aromatic compounds shown in Tables 1 and 2 were each dissolved in the buffered salines (25 μL) shown in Tables 1 and 2. However, in Comparative Example 2, no aromatic compound was used, and only dimethylformamide was used. The two resulting solutions were mixed and allowed to stand at room temperature for 30 minutes to complex the aromatic compound with the plasmid DNA. Thereafter, 450 μL of the buffered saline used for the complexification and 500 μL of Dulbecco's modified Eagle medium (DMEM, Wako) containing 10% fetal bovine serum were added, and the resulting complex was added to HEK293T cells (mammalian cells). After 48 hours, the amount of nucleic acid was measured by quantitative PCR.
In Tables 1 to 3, as for the buffered salines, “MEM” means Eagle's minimum essential medium, “TBS” means Tris-buffered saline, “HBS” means HEPES-buffered saline, and “MBS” means MES-buffered saline.

SMILES | Amount of nucleic acid relative comparison with Example 1
NCCc1ccc(-c2cc3c(-c4ccc(CCN)cc4)cc4c(-c5ccc(CCN)cc5)cc5c(-c6ccc(CCN)cc6)cc6c(-c7ccc(CCN)cc7)cc2c2c6c5c4c32)cc1 [KTU192] | 0.6727
NCCOc1ccc(-c2cc3c(-c4ccc(OCCN)cc4)cc4c(-c5ccc(OCCN)cc5)cc5c(-c6ccc(OCCN)cc6)cc6c(-c7ccc(OCCN)cc7)cc2c2c6c5c4c32)cc1 [KTU204] | 0.6309
c1cc(N2CCNCC2)ccc1-c1cc2c(-c3ccc(N4CCNCC4)cc3)cc3c(-c4ccc(N5CCNCC5)cc4)cc4c(-c5ccc(N6CCNCC6)cc5)cc5c(-c6ccc(N7CCNCC7)cc6)cc1c1c5c4c3c21 [KTU205] | 1.112
